16 compounds from patent publication US11136320B2, “Fused ring derivative used as FGFR4 inhibitor” (JACOBIO PHARMACEUTICALS CO., LTD., priority 2019, dated 2021) can be followed below.

The test system of data set [1] is Hepatoma cell Hep3B (high expression of FGFR4 and FGF19). Nature of the data set: Hepatoma cell proliferation inhibition experiment (MTS method). The class given is cell-based. To be noted: for IC50: Homo sapiens, Hep3B, read-out: Hep3B(IC50 μM). The text has this: In this experiment, the MTS method was used to test the inhibitory effect of the compounds on the proliferation of Hepatoma cell Hep3B (high expression of FGFR4 and FGF19), and the half inhibitory concentration IC50 of the compounds to Hep3B was obtained. The Hep3B cell line was purchased from ATCC, and the complete culture medium of the Hep3B cell line was MEM+10% FBS+1% PS. MEM cell culture medium, fetal bovine serum, and trypsin were purchased from Gibco, cell culture flasks were purchased from Greiner, and disposable Cell Counting Plate and Taittinger Blue Solution were purchased from Bio-Rad.
(1) 100 μl Hepatoma cell Hep3B suspension was seeded in a 96-well cell culture plate, and the density of each well was 2.0×10^4 cells/ml.
(3) A mixture of MTS (3-(4,5-dimethylthiazol-2-yl)-5-(3-carboxymethoxyphenyl)-2-(4-sulfophenyl)-2H-tetrazolium)/PMS (phenazine methosulfate) was added into each well for coloration, and MTS/PMS in the mixture was at a ratio of 20:1 (ml:ml). 30 μl of the mixture was added into each well of the culture plate above mentioned in step (2), then the culture plate was incubated for 3 h in the incubator.
(5) The inhibition rate was calculated by the […];
(6) According to the inhibition rate of the different concentrations, the IC50 values of the compounds were obtained by curve fitting.
On the technique in general: Tetrazolium dyes change colour on reduction, which living cells bring about.

A short description of a further data set: PK analysis of rats. Format: in vivo. To be noted: p.o. (10 mg/kg); for AUC(0-t) / Cmax: rat, plasma, po; for AUC(0-t): read-out: Curve area AUC0-24 h; for Cmax: read-out: Drug concentration in blood Cmax. The method, then:
In the present invention, the pharmacokinetics experiment of the compounds in rats was performed using the SD rats (Vitolihua).
(1) Mode of administration: single gavage administration and intravenous injection administration.
(2) Dosage: 10 mg/kg in the gavage administration, 3 mg/kg in the intravenous injection administration.
Gavage administration: before administration, 15 min, 30 min, 1 h, 2 h, 4 h, 6 h, 8 h, 24 h; […]
(4) Sample processing: 200 μL of orbital blood was collected at each sampling time point. After anticoagulation with heparin, the blood was centrifuged at 5500 rpm for 10 min, and 60 μL of the supernatant was taken and put into the refrigerator at −80° C. for waiting for testing.
Samples obtained after administration of Compound 1 were tested using 4000 LC-MS/MS analyzer, wherein, the chromatographic separation conditions for testing were:
Samples obtained after administration of Compound 7 were tested using 4000 LC-MS/MS analyzer, wherein, the chromatographic separation conditions for testing were:
Samples obtained after administration of Compound 16 were tested using 4000 LC-MS/MS analyzer, wherein, the chromatographic separation conditions for testing were: […]

Data set [2] deals with T1, FGFR4 kinase (Homo sapiens (Human), UniProt P22455). The data set can be described thus: biochemical.
T1 sequence (P22455 22-802): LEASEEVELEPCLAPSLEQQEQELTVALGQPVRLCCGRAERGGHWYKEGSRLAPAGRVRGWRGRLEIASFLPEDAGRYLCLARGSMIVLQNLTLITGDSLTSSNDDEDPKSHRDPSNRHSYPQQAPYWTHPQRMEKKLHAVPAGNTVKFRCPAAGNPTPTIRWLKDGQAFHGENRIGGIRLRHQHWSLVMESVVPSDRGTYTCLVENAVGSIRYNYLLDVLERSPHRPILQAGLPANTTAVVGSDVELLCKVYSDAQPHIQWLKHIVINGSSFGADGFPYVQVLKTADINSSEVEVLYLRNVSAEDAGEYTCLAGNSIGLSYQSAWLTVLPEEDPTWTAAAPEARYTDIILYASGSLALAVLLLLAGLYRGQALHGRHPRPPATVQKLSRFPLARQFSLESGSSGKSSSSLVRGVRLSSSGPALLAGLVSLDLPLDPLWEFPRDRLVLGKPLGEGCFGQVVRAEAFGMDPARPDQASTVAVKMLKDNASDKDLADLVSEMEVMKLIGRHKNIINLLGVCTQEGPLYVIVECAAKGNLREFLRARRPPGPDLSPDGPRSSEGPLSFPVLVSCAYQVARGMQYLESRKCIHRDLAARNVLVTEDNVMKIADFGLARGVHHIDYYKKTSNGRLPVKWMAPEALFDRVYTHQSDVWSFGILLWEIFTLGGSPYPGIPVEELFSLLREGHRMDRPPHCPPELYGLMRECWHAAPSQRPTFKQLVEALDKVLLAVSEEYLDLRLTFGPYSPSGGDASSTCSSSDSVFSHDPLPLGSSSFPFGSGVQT
Data set [3] has as its target T1, FGFR4 kinase.

Counter-ions that a name gives are not always drawn. Like-named read-outs stand apart in the source and are kept apart here.

As a reminder, the IC50 is the midpoint of a concentration-inhibition curve. Consider `CSCC(C)Nc1cc(NC(=O)N2CCCc3cc(CN4CCN(C)CC4=O)c(C=O)nc32)ncc1C#N` (stereo not drawn) [Compound 82, N-(5-cyano-4-((1-(methyl-thio)propan-2-yl)amino)pyridin-2-yl)-7-formyl-6-((4-methyl-2-oxopiperazin-1-yl)methyl)-3,4-dihydro-1,8-naphthyridine-1(2H)-carboxamide], for which, in data set [1], the “inhibitory effect on Hepatoma cell Hep3B compared with the reference compound” value is given as “better inhibitory effect”. Besides, in data set [1] (120 h incubation), the IC50 is 0.02 µM.
For `CSCCNc1cc(NC(=O)N2CCCc3cc(CN4CCN(C)CC4=O)c(C=O)nc32)ncc1C#N` [Compound 1], the IC50 in data set [1] (120 h incubation) was found to be 0.023 µM. Further, the “exposure amount AUC0-24 h and maximum drug concentration in blood Cmax compared with the reference compound” value in the data set “PK analysis of rats” (SD rats) is “significantly higher than the reference compound”. Moreover, in the data set “PK analysis of rats” (Sprague-Dawley (SD)), the AUC(0-t) is 2370 ng·h/mL and the Cmax was 833 ng/mL. The same compound displayed an IC50 at FGFR4 kinase [2] of 1.5 nM.
On FGFR4 kinase [2], `CC(Nc1cc(NC(=O)N2CCCc3cc(CN4CCN(C)CC4=O)c(C=O)nc32)ncc1C#N)c1nccs1` (stereo not drawn) [Compound 60, N-(5-cyano-4-((1-(thiazol-2-yl)ethyl)amino)pyridin-2-yl)-7-formyl-6-((4-methyl-2-oxopiperazin-1-yl)methyl)-3,4-dihydro-1,8-naphthyridine-1(2H)-carboxamide] showed an IC50 of 3 nM.
`CN1CCN(Cc2cc3c(nc2C=O)N(C(=O)Nc2cc(NCC[S+](C)[O-])c(C#N)cn2)CCC3)C(=O)C1` (stereo not drawn) [Compound 27, N-(5-cyano-4-((2-(methyl-sulfinyl)ethyl)amino)pyridin-2-yl)-7-formyl-6-((4-methyl-2-oxopiperazin-1-yl)methyl)-3,4-dihydro-1,8-naphthyridine-1(2H)-carboxamide]: the values for the IC50 (in data set [1] (120 h incubation); at FGFR4 kinase [2]) were 0.282 µM and 2.4 nM, respectively. Besides, on FGFR4 kinase [3], the “inhibitory effect on FGFR4 compared with the reference compound” value is “better inhibitory effect on FGFR4 than the reference compound”.
Take `CSCCNc1cc(NC(=O)N2CCCc3cc(CN(C)C(=O)[C@H]4CCCO4)c(C=O)nc32)ncc1C#N` [Compound 74, (R)-N-(5-cyano-4-((2-(methylthio)ethyl)amino)pyridin-2-yl)-7-formyl-6-((N-methyltetrahydrofuran-2-carboxamido)methyl)-3,4-dihydro-1,8-naphthyridine-1(2H)-carboxamide hydrochloride]: in data set [1] (120 h incubation), the half-maximal inhibitory concentration (IC50) stood at 0.06 µM.
For the compound `Cc1ccc(CNc2cc(NC(=O)N3CCCc4cc(CN5CCN(C)CC5=O)c(C=O)nc43)ncc2C#N)s1` [Compound 58, N-(5-cyano-4-(((5-methyl-thiophen-2-yl)methyl)amino)pyridin-2-yl)-7-formyl-6-((4-methyl-2-oxopiperazin-1-yl)methyl)-3,4-dihydro-1,8-naphthyridine-1(2H)-carboxamide], the “inhibitory effect on FGFR4 compared with the reference compound” value against FGFR4 kinase [3] was “better inhibitory effect on FGFR4 than the reference compound”. Besides, on FGFR4 kinase [2], the IC50 was found to be 2.1 nM.
The matching figures for `CN1CCN(Cc2cc3c(nc2C=O)N(C(=O)Nc2cc(NCc4cscn4)c(C#N)cn2)CCC3)C(=O)C1` [Compound 59, N-(5-Cyano-4-((thiazol-4-yl-methyl)amino)pyridin-2-yl)-7-formyl-6-((4-methyl-2-oxopiperazin-1-yl)methyl)-3,4-dihydro-1,8-naphthyridine-1(2H)-carboxamide]: “better inhibitory effect on FGFR4 than the reference compound” and 2.1 nM.
As to `CN1CCN(Cc2cc3c(nc2C=O)N(C(=O)Nc2cc(NCc4ccsn4)c(C#N)cn2)CCC3)C(=O)C1` [Compound 68, N-(5-Cyano-4-((isothiazol-3-yl-methyl)amino)pyridin-2-yl)-7-formyl-6-((4-methyl-2-oxopiperazin-1-yl)methyl)-3-1,4-dihydro-1,8-naphthyridine-1(2H)-carboxamide], the IC50 in data set [1] (120 h incubation) turned out to be 0.026 µM.
In the case of `CO[C@@H]1CCN(Cc2cc3c(nc2C=O)N(C(=O)Nc2cc(NCCSC)c(C#N)cn2)CCC3)C1=O` [Compound 8, (R)-N-(5-cyano-4-((2-(methylthio)ethyl)amino)pyridin-2-yl)-7-formyl-6-((3-methoxy-2-oxopyrrolidin-1-yl)methyl)-3,4-dihydro-1,8-naphthyridine-1(2H)-carboxamide], the “inhibitory effect on Hepatoma cell Hep3B compared with the reference compound” value in data set [1] is “better inhibitory effect”. Besides, in data set [1] (120 h incubation), the IC50 was found to be 0.008 µM.
As to `CO[C@@H]1CCN(Cc2cc3c(nc2C=O)N(C(=O)Nc2cc(N[C@H](C)CSC)c(C#N)cn2)CCC3)C1=O` [Compound 9, N-(5-cyano-4-(((R)-1-(methylthio)propan-2-yl)amino)pyridin-2-yl)-7-formyl-6-(((R)-3-methoxy-2-oxopyrrolidin-1-yl)methyl)-3,4-dihydro-1,8-naphthyridine-1(2H)-carboxamide], in data set [1], the “inhibitory effect on Hepatoma cell Hep3B compared with the reference compound” value is listed as “better inhibitory effect”. Also, the 50% inhibitory concentration (IC50) in data set [1] (120 h incubation) came to 0.009 µM.
Turning to `CSCCOc1cc(NC(=O)N2CCCc3cc(CN4CCN(C)CC4=O)c(C=O)nc32)ncc1C#N` [Compound 2], the IC50 in data set [1] (120 h incubation) turned out to be 0.028 µM.
The same measure, in the same setting: as for `CSC[C@H](C)Nc1cc(NC(=O)N2CCCc3cc(CN4CCN(C)CC4=O)c(C=O)nc32)ncc1C#N` [Compound 11, (S)-N-(5-cyano-4-((1-(methylthio)propan-2-yl)amino)pyridin-2-yl)-7-formyl-6-((4-methyl-2-oxopiperazin-1-yl)methyl)-3,4-dihydro-1,8-naphthyridine-1(2H)-carboxamide], the figure is 0.035 µM.
In turn, `CN1CCN(Cc2cc3c(nc2C=O)N(C(=O)Nc2cc(NCc4cncs4)c(C#N)cn2)CCC3)C(=O)C1` [Compound 55, N-(5-cyano-4-((thiazol-5-yl-methyl)amino)pyridin-2-yl)-7-formyl-6-((4-methyl-2-oxopiperazin-1-yl)methyl)-3,4-dihydro-1,8-naphthyridine-1(2H)-carboxamide] came in with an IC50 against FGFR4 kinase [2] of 3 nM.
Regarding `CSCCNc1cc(NC(=O)N2CCCc3cc(CN4CCCCOC4=O)c(C=O)nc32)ncc1C#N` [Compound 16, N-(5-cyano-4-((2-(methylthio)ethyl)amino)pyridin-2-yl)-7-formyl-6-((2-oxo-1,3-oxazepan-3-yl)methyl)-3,4-dihydro-1,8-naphthyridine-1(2H)-carboxamide], in data set [1] (120 h incubation), the IC50 stood at 0.029 µM. Besides, in the data set “PK analysis of rats” (SD rats), the “exposure amount AUC0-24 h and maximum drug concentration in blood Cmax compared with the reference compound” value is “significantly higher than the reference compound”; the AUC(0-t) was 3670 ng·h/mL; the Cmax was 936 ng/mL.
With `CN1CCN(Cc2cc3c(nc2C=O)N(C(=O)Nc2cc(NC4CCSCC4)c(C#N)cn2)CCC3)C(=O)C1` [Compound 20, N-(5-cyano-4-((tetrahydro-2H-thiopyran-4-yl)amino)pyridin-2-yl)-7-formyl-6-((4-methyl-2-oxopiperazin-1-yl)methyl)-3,4-dihydro-1,8-naphthyridine-1(2H)-carboxamide], in data set [1], the “inhibitory effect on Hepatoma cell Hep3B compared with the reference compound” value is “better inhibitory effect”. Besides, the IC50 in data set [1] (120 h incubation) stood at 0.021 µM. For the same compound, in “PK analysis of rats” (SD rats), the “exposure amount AUC0-24 h and maximum drug concentration in blood Cmax compared with the reference compound” value is “significantly higher than the reference compound”; the AUC(0-t) is 2000 ng·h/mL; the Cmax was found to be 514 ng/mL. At FGFR4 kinase [2], this compound gave an IC50 of 4.4 nM.
With `CCSCCNc1cc(NC(=O)N2CCCc3cc(CN4CCN(C)CC4=O)c(C=O)nc32)ncc1C#N` [Compound 71, N-(5-cyano-44 (2-(ethylthio)ethypamino)pyridin-2-yl)-7-formyl-64 (4-methyl-2-oxopiperazin-1-yl)methyl)-3,4-dihydro-1,8-naphthyridine-1 (2H)-carboxamide hydrochloride], the IC50 in data set [1] (120 h) stood at 0.049 µM. Further, the “exposure amount AUC0-24 h and maximum drug concentration in blood Cmax compared with the reference compound” value in the data set “PK analysis of rats” (SD rats) is “significantly higher than the reference compound”. For the same compound, in “PK analysis of rats” (Sprague-Dawley (SD)), the AUC(0-t) is 1950 ng·h/mL and the Cmax turned out to be 657 ng/mL. The compound also gave an IC50 at FGFR4 kinase [2] of 2.4 nM.
